Patent US8030352B2, “Method of producing retinyl esters” (Unilever Home & Personal Care USA, division of Conopco, Inc., priority 2002, dated 2011)

Experiment: Retinyl ester stability in moisturising cream formulations (HPLC)
Type: physicochemical
Settings: 0.03 and 0.15% retinyl ester in cream; stored at 22, 30, 45 and 50° C.; sampled over 35 days; FIGS. 1 and 2
Method: Retinyl Linoleate from National Starch Corp. and the retinyl ester product from example 1 were blended into moisturising cream formulations shown below in Formulations 1 and 2 at a level of 0.03 and 0.15% of the retinyl ester. The creams were stored at 22° C., 30° C., 45° C. and 50° C. and samples taken at time 0, and twice more over 35 days as shown in FIGS. 1 and 2.
The retinyl esters were extracted from the base cream 60/40 acetone/acetonitrile, stirred for 10 minutes, filtered and then injected These were then analysed by HPLC according to the conditions below.
FIGS. 1 and 2 show the stability results for the samples.

## CCCCCCCCCCCCCCCC(=O)OC/C=C(C)/C=C/C=C(C)/C=C/C1=C(C)CCCC1(C)C [retinyl palmitate]
  stability in moisturising cream: only as stable as retinyl linoleate (National Starch)
